Test results: US11426346B2, “Lutein-containing ophthalmic composition” (Taipei Medical University, priority 2019, dated 2022)

Columns and labels:
Format in all cases: cell-based, human
TNF-α = assay: Gene expression of inflammatory cytokine TNF-α in LPS-induced HCE-2 cells (Real-Time PCR); settings: 500 ng/mL LPS 6 hours, then 2 hours treatment, compared with LPS group, FIG. 3C
Method: (§1) 3×10^5 (cell/ml) human corneal epithelial cells (HCE-2) were cultured in a 6-well plate and cultured overnight in an incubator for cell attachment, followed 500 ng/mL lipopolysaccharides (LPS) was added in culture medium for co-cultured with cells for 6 hours to induce cell inflammation. After 6 hours, the medium containing lipopolysaccharide (LPS) was removed, and the medium with the lutein, PVA was added to a 6-well plate. After 2 hours of treatment, the gene expressions of cellular inflammatory cytokines (IL-1β, IL-6, TNF-α) were detected by real-time polymerase chain reaction (Real-Time PCR). […]

IL-6 = assay: Gene expression of inflammatory cytokine IL-6 in LPS-induced HCE-2 cells (Real-Time PCR); settings: 500 ng/mL LPS 6 hours, then 2 hours treatment, compared with LPS group, FIG. 3B
Method: as §1

IL-1β = assay: Gene expression of inflammatory cytokine IL-1β in LPS-induced HCE-2 cells (Real-Time PCR); settings: 500 ng/mL LPS 6 hours, then 2 hours treatment, compared with LPS group, FIG. 3A
Method: as §1

CC1=C[C@H](O)CC(C)(C)[C@H]1/C=C/C(C)=C/C=C/C(C)=C/C=C/C=C(C)/C=C/C=C(C)/C=C/C1=C(C)C[C@@H](O)CC1(C)C [lutein (L), lutein]
inhibit the expression: gene expression of TNF-α (TNF-α) | gene expression of IL-6 (IL-6) | gene expression of IL-1β (IL-1β)
